According to article PMC8243547 (BMC Complementary Medicine and Therapies, 2021):
In brackets after ≈: the same amount, converted by molar mass. Several values for one entry are separate records, joined by “and”; a condition that tells them apart may be missing. Equal values may be shown once. Read-outs that look alike come from different tables or passages of the source.

Experiments:
[1] = test system: multi-resistant Dd2 strain of P. falciparum; assay: SYBR green I fluorescence-based antiplasmodial assay, PfDd2; format: cell-based; conditions: Plasmodium falciparum
Method: (§1) The cytotoxicity assay was performed using the African green monkey normal kidney Vero cells (ATCC CRL 1586) and murine macrophages Raw 264.7 cells (ATCC #TIB-71) obtained from the American Type Culture Collection (ATCC).
(§2) The culture medium was renewed daily to propagate the culture. Thin blood smears were made and stained with 10% Giemsa solution for 10 min and microscopically examined under oil immersion to monitor cell cycle transition and parasitaemia.
(§3) Before each experiment, synchronized ring stage parasites were obtained by 5% sorbitol (w/v) treatment as previously described.
(§4) The parasite susceptibility was determined in 96-well microtitration plates using the SYBR green I fluorescence-based method with some modifications. Briefly, sorbitol-synchronized ring stage parasites (hematocrit: 1.5%, parasitemia: 1%) were incubated in the presence of two-fold diluted extracts (0.78-100 μg/mL, DMSO 0.5%), fractions (0.39-50 μg/mL, DMSO 0.5%) or compounds (0.15-20 μg/mL, DMSO 0.5%). […] Drug-free culture wells in 0.5% DMSO were considered as positive growth controls. After 72 h of incubation, 50 μL of SYBR Green I lysis solution [Tris (20 mM; pH 7.5) (Sigma–Aldrich), EDTA (5 mM) (Sigma–Aldrich), saponin (0.008%, w/v) (Sigma–Aldrich), Triton X-100 (0.08%, v/v) (Sigma–Aldrich) and SYBR Green (2x) (Life technologies)] were added to each well and the plate was incubated in the dark at 37 °C for 30 min. SYBR green I fluorescence was measured using a Fluoroskan Ascent multi-well plate reader (Thermo scientific) with excitation and emission wavelength bands set at 485 and 538 nm, respectively. […] The resistance indices (RI), defined as the ratio of the EC50 of drug-resistant strain to the EC50 of sensitive strain were calculated.
(§5) Microsoft Excel Software was used to calculate the percentage of inhibition. The EC50 and CC50 values for the in vitro antiplasmodial activity were determined by non-linear regression analysis using GraphPad Prism 5.0 Software.

in vitro [2] = conditions: mouse
Method: as §1
The cytotoxicity of active natural products was assessed according to the protocol described by. The African green monkey normal kidney Vero cells (ATCC CRL 1586) and murine macrophages Raw 264.7 cells (ATCC #TIB-71) were maintained in T-25 flasks (Corning Incorporated, USA) using complete Dulbecco’s Modified Eagle’s Medium (Sigma-Aldrich, Germany), supplemented with, 10% Fetal Bovine Serum (Sigma-Aldrich, Germany), 0.2% sodium bicarbonate (w/v) (Sigma-Aldrich, Germany) and 1% (v/v) Penicillin-Streptomycin (Sigma-Aldrich, Germany). The cells were kept at 37 °C for 72 h in 5% CO2 incubator, and the medium was renewed each 72 h and the cell density monitored under the inverted fluorescent microscope Etaluma 520 (Etaluma, USA) until the formation of a monolayer. Confluent culture (nearly 90%) was trypsinized (0.05% Trypsin-EDTA, Sigma-Aldrich, Germany), then centrifuged at 1800 rpm for 5 min and the resulting pellet was re-suspended in culture medium. Cells at 10^4cells per well were seeded (100 μL) in 96-well culture plates (Costar, USA) and incubated overnight to allow cell adhesion. Thereafter, 10 μL of serially diluted extracts, fractions (≤200 μg/mL), and compounds (≤50 μg/mL) were added to plate wells in duplicate. The plates were incubated in a humidified and 5% CO2 atmosphere at 37 °C for 48 h. […] Fluorescence was then read using a Magelan Infinite M200 fluorescence multi-well plate reader (Tecan) with excitation and emission wavelengths at 530 and 590 nm, respectively. […] Selectivity indices (SI = CC50/EC50, defining the balance between cytotoxicity and antiplasmodial activity) were calculated for each test substance.
as §5

in vitro [3] = conditions: African green monkey
Method: as §1
(§6) The cytotoxicity of active natural products was assessed according to the protocol described by. The African green monkey normal kidney Vero cells (ATCC CRL 1586) and murine macrophages Raw 264.7 cells (ATCC #TIB-71) were maintained in T-25 flasks (Corning Incorporated, USA) using complete Dulbecco’s Modified Eagle’s Medium (Sigma-Aldrich, Germany), supplemented with, 10% Fetal Bovine Serum (Sigma-Aldrich, Germany), 0.2% sodium bicarbonate (w/v) (Sigma-Aldrich, Germany) and 1% (v/v) Penicillin-Streptomycin (Sigma-Aldrich, Germany). The cells were kept at 37 °C for 72 h in 5% CO2 incubator, and the medium was renewed each 72 h and the cell density monitored under the inverted fluorescent microscope Etaluma 520 (Etaluma, USA) until the formation of a monolayer. Confluent culture (nearly 90%) was trypsinized (0.05% Trypsin-EDTA, Sigma-Aldrich, Germany), then centrifuged at 1800 rpm for 5 min and the resulting pellet was re-suspended in culture medium. Cells at 10^4cells per well were seeded (100 μL) in 96-well culture plates (Costar, USA) and incubated overnight to allow cell adhesion. Thereafter, 10 μL of serially diluted extracts, fractions (≤200 μg/mL), and compounds (≤50 μg/mL) were added to plate wells in duplicate. The plates were incubated in a humidified and 5% CO2 atmosphere at 37 °C for 48 h. Podophyllotoxin at 20 μM was added as positive control and wells containing untreated cells were included as 100% growth control. Ten microliters of resazurin stock solution (0.15 mg/mL in sterile PBS), were added to each well, and incubated for an additional 4 h. Fluorescence was then read using a Magelan Infinite M200 fluorescence multi-well plate reader (Tecan) with excitation and emission wavelengths at 530 and 590 nm, respectively. The percentage of cell viability was calculated with regard to the negative control, and subsequently used to determine the concentration that reduced 50% of cell viability (CC50) by non-linear regression using the GraphPad Prism software version 5.0 (San Diego, California) as described above. Selectivity indices (SI = CC50/EC50, defining the balance between cytotoxicity and antiplasmodial activity) were calculated for each test substance.
as §5

[4] = test system: African green monkey normal kidney Vero cells; assay: Resazurin-based cytotoxicity assay, Vero cells; conditions: over Vero and Raw 264.7 cells and Pf3D7 and PfDd2 strains
Method: as §1, §6, §5

[5] = test system: chloroquine-sensitive 3D7 strain of P. falciparum; assay: SYBR green I fluorescence-based antiplasmodial assay, Pf3D7; format: cell-based; conditions: Plasmodium falciparum
Method: as §1, §2, §3, §4, §5

[6] = test system: human liver cell line Huh7; conditions: cited from earlier work
red blood cells = conditions: cited from earlier work
FabI = test system: FabI; set-up: method as in PMID 16722653; conditions: enzyme of fatty acid biosynthesis of P. falciparum; read-out: EC50 of FabI inhibition; cited from earlier work
[7] = test system: chloroquine-sensitive strain D10 of P. falciparum; set-up: method as in PMID 21503279; conditions: cited from earlier work
[8] = test system: chloroquine sensitive strain Pf3D7; set-up: method as in PMID 18710482; conditions: read-out: EC50 against chloroquine sensitive strain Pf3D7; cited from earlier work
[9] = test system: chloroquine sensitive poW strain of P. falciparum; set-up: method as in PMID 12064726; conditions: read-out: EC50 against chloroquine sensitive poW strain; cited from earlier work
[10] = test system: multi-resistant Dd2 strain of P. falciparum; set-up: method as in PMID 12064726; conditions: read-out: EC50 against multi-resistant Dd2 strain; cited from earlier work
normal human cells TIG-1 = conditions: read-out: 50% lethal concentration (LC50), TIG-1; cited from earlier work
[11] = test system: chloroquine resistant strain Pf7G8; set-up: method as in PMID 18710482; conditions: read-out: EC50 against chloroquine resistant strain Pf7G8; cited from earlier work
normal human cells HUVE = conditions: read-out: 50% lethal concentration (LC50), HUVE; cited from earlier work
[12] = test system: resistant strain W2 of P. falciparum; set-up: method as in PMID 21503279; conditions: cited from earlier work
P. berghei = conditions: murine malaria model, cited from earlier work
Pf3D7 = test system: Pf3D7; set-up: method as in PMID 19015351; conditions: read-out: antiplasmodial potency Pf3D7; cited from earlier work
PfDd2 = test system: PfDd2; set-up: method as in PMID 19015351; conditions: read-out: antiplasmodial potency PfDd2; cited from earlier work
[13] = DD2, isolated compounds and reference drugs (Table 3), 72 h incubation, read-out: EC50 (μM) PfDd2
[14] = 3D7, isolated compounds and reference drugs (Table 3), 72 h incubation, read-out: EC50 (μM) Pf3D7
[15] = DD2, 72 h, read-out: EC50 (μM) PfDd2

COc1c(O)cc2c(=O)oc3c(OC)c(O)cc4c(=O)oc1c2c34 [Compound 6, 3,3′-O-dimethylellagic acid]
EC50 [1, 13]: 1.36 ± 0.47 µM | CC50 at 48 h (in vitro [2]): > 152 µM | CC50 at 48 h (in vitro [3]): > 152 µM | SI (selectivity index) [4]: greater than 9 | EC50 [5, 14]: 4.27 ± 0.05 µM

C[C@@H]1CC[C@H]2[C@@H](C)C(=O)O[C@@H]3O[C@@]4(C)CC[C@@H]1[C@]32OO4 [Artemisinin, reference compound]
EC50 ([1]; DD2, Table 1 reference drugs, 72 h incubation, read-out: EC50 PfDd2, reference drugs): 0.018 ± 0.003 µM | EC50 [1, 13]: 0.018 ± 0.003 µM | EC50 ([5]; 3D7, Table 1 reference drugs, 72 h incubation, read-out: EC50 Pf3D7, reference drugs): 0.014 ± 0.001 µM | EC50 [5, 14]: 0.014 ± 0.001 µM

O=c1c(O)c(-c2ccc(O)cc2)oc2cc(O)cc(O)c12 [Compound 3, kaempferol]
EC50 [1, 13]: > 200 µM | EC50 [5, 14]: > 200 µM

O=c1cc(-c2ccc(O)cc2)oc2cc(O)cc(O)c12 [Compound 1, apigenin]
cytotoxicity on Huh7, in words [6]: no signs of cytotoxicity | membrane disruption on red blood cells, in words (red blood cells): no signs | EC50 (FabI): 50 µM | EC50 against chloroquine-sensitive strain D10 [7]: 25.4 ± 7.9 µg/mL (≈ 94 µM) | EC50 [8]: 20 ± 3 µM | EC50 [1, 13]: 16.4 ± 0.52 µM | CC50 at 48 h (in vitro [2]): > 185 µM | EC50 [9]: 19 µM | CC50 at 48 h (in vitro [3]): > 185 µM | SI (selectivity index) [4]: greater than 9 | EC50 [10]: 28.5 µM | EC50 [5, 14]: 19 ± 0.72 µM | CC50 (normal human cells TIG-1): 110 µM | EC50 [11]: 13 ± 2 µM | CC50 (normal human cells HUVE): 110 µM | EC50 against resistant strain W2 [12]: 20.2 ± 6.4 µg/mL (≈ 74.7 µM) | suppression of P. berghei parasiteamia (P. berghei; 15 mg/kg/day): 49.23% | suppression of P. berghei parasiteamia (P. berghei; 35 mg/kg/day): 50.3% | suppression of P. berghei parasiteamia (P. berghei; 70 mg/kg/day): 69.74%

CCN(CC)CCCC(C)Nc1ccnc2cc(Cl)ccc12 (stereo not drawn) [Chloroquine, reference compound]
EC50 [1, 15]: 0.449 ± 0.065 µM | EC50 ([1]; DD2, 72 h, read-out: EC50 PfDd2, reference drugs (μM)): 0.449 ± 0.065 µM | EC50 ([5]; 3D7, 72 h, read-out: EC50 (μM) Pf3D7): 0.018 ± 0.002 µM | EC50 ([5]; 3D7, 72 h, read-out: EC50 Pf3D7, reference drugs (μM)): 0.018 ± 0.002 µM

C=C(C)[C@@H]1CC[C@]2(C)CC[C@]3(C)C(CCC4[C@@]5(C)C[C@H](O)[C@H](O)C(C)(C)C5CC[C@]43C)C12 (stereo partly drawn) [Compound 4, 2β,3β-dihydroxylup-20-ene]
EC50 [1, 15]: > 200 µM | EC50 [5, 14]: > 200 µM

O=c1oc2c(O)c(O)cc3c(=O)oc4c(O)c(O)cc1c4c23 [ellagic acid]
EC50 (Pf3D7): 0.819 µM | EC50 (PfDd2): 0.351 µM

Oc1ccc([C@H]2Oc3cc(O)cc(O)c3C[C@@H]2O)cc1 [Compound 2, afzelechin]
EC50 [1, 13]: > 200 µM | EC50 [5, 14]: > 200 µM

COc1cc([C@@H]2c3cc4c(cc3[C@H](O)[C@H]3COC(=O)[C@H]23)OCO4)cc(OC)c1OC [Podophyllotoxin, reference compound]
CC50 at 48 h (in vitro [2]): 0.76 µg/mL and 1.83 µM | CC50 at 48 h (in vitro [3]): 1.89 µg/mL and 4.56 µM
